Laboratory results reported in US6025467A, “Parathyroid hormone derivatives and their use” (Takeda Chemical Industries, Ltd., priority 1995, dated 2000).
Non-standard residues stand in square brackets, D forms with d. Residues, ends and D or L forms follow the SMILES beside them. No end group written: not given here. 2Nal = N[C@@H](Cc1ccc2ccccc2c1)C(=O)O; Aib = CC(C)(N)C(=O)O

Experiments:
Sprangue Dawley rats = assay: Increase in femur bone weight in rats after subcutaneous dosing; assay type: in vivo, rat; conditions: dried right femur weight compared with vehicle group
Protocol: To four-week-old male Sprangue Dawley rats, the compounds synthesized in Example 1 […], and increases in the bone weight in their femurs were compared with that of a group to which a vehicle (0.15M NaCl, 0.001N hydrochloric acid and 2% heat-inactivated rat serum) was given. After administration, their right femurs were taken out, and the tissues around them were removed. Then, the femurs were dried at 100° C. for 3 hours and weighed.

PTH receptor = PTH receptor (mouse, UniProt P41593); assay: cell-based or functional assay
[1] = 4.9 nmol/kg a day subcutaneously for two weeks, four-week-old male rats

CC[C@H](C)[C@H](NC(=O)[C@H](CCC(=O)O)NC(=O)[C@H](CO)NC(=O)[C@@H](NC(=O)[C@@H](N)CO)C(C)C)C(=O)N[C@@H](CCC(N)=O)C(=O)N[C@@H](CC(C)C)C(=O)N[C@@H](CCSC)C(=O)N[C@@H](Cc1c[nH]cn1)C(=O)N[C@@H](CCC(=O)O)C(=O)N[C@@H](CC(C)C)C(=O)NCC(=O)N[C@@H](CCCN)C(=O)N[C@@H](Cc1c[nH]cn1)C(=O)N[C@@H](CC(C)C)C(=O)N[C@@H](CC(N)=O)C(=O)N[C@@H](CO)C(=O)N[C@@H](CCSC)C(=O)N[C@@H](CCC(=O)O)C(=O)N[C@@H](CCCNC(=N)N)C(=O)N[C@H](C(=O)N[C@@H](CCC(=O)O)C(=O)N[C@@H](Cc1c[nH]c2ccccc12)C(=O)N[C@@H](CC(C)C)C(=O)N[C@@H](CCCNC(=N)N)C(=O)N[C@@H](CCCCN)C(=O)N[C@@H](CCCCN)C(=O)N[C@@H](CC(C)C)C(=O)N[C@@H](CCC(N)=O)C(=O)N[C@@H](CC(=O)O)C(=O)N[C@H](C(=O)N[C@@H](Cc1c[nH]cn1)C(=O)N[C@@H](CC(N)=O)C(=O)N[C@@H](Cc1ccccc1)C(=O)O)C(C)C)C(C)C [(22), [Glu^10, Orn^13] hPTH(1-34)]
bone increase (Sprangue Dawley rats; [1]): 14.8 mg

CC[C@H](C)[C@H](NC(=O)[C@H](CCC(=O)O)NC(=O)[C@H](CO)NC(=O)[C@@H](NC(=O)[C@@H](N)CO)C(C)C)C(=O)N[C@@H](CCC(N)=O)C(=O)N[C@@H](CC(C)C)C(=O)N[C@@H](CCSC)C(=O)N[C@@H](Cc1c[nH]cn1)C(=O)N[C@@H](CC(=O)O)C(=O)N[C@@H](CCCCN)C(=O)NCC(=O)N[C@@H](CCCCN)C(=O)N[C@@H](Cc1c[nH]cn1)C(=O)N[C@@H](CC(C)C)C(=O)N[C@@H](CC(N)=O)C(=O)N[C@@H](CO)C(=O)N[C@@H](CCSC)C(=O)N[C@@H](CCC(=O)O)C(=O)N[C@@H](CCCNC(=N)N)C(=O)N[C@H](C(=O)N[C@@H](CCC(=O)O)C(=O)N[C@@H](Cc1c[nH]c2ccccc12)C(=O)N[C@@H](CC(C)C)C(=O)N[C@@H](CCCNC(=N)N)C(=O)N[C@@H](CCCCN)C(=O)N[C@@H](CCCCN)C(=O)N[C@@H](CC(C)C)C(=O)N[C@@H](CCC(N)=O)C(=O)N[C@@H](CC(=O)O)C(=O)N[C@H](C(=O)N[C@@H](Cc1c[nH]cn1)C(=O)N[C@@H](CC(N)=O)C(=O)N[C@@H](Cc1ccccc1)C(=O)O)C(C)C)C(C)C [(1), [Asp^10, Lys^11] hPTH(1-34)] (H-SVSEIQLMHDKGKHLNSMERVEWLRKKLQDVHNF-OH)
bone increase (Sprangue Dawley rats; 4.9 nmol/kg a day subcutaneously, continuously administered for 4 weeks): 66.6 mg

CC[C@H](C)[C@H](NC(=O)[C@H](CCC(=O)O)NC(=O)[C@H](CO)NC(=O)[C@@H](NC(=O)[C@@H](N)CO)C(C)C)C(=O)N[C@@H](CCC(N)=O)C(=O)N[C@@H](CC(C)C)C(=O)N[C@@H](CCSC)C(=O)N[C@@H](Cc1c[nH]cn1)C(=O)N[C@@H](CC(=O)O)C(=O)N[C@@H](Cc1ccccc1)C(=O)NCC(=O)N[C@@H](CCCCN)C(=O)N[C@@H](Cc1c[nH]cn1)C(=O)N[C@@H](CC(C)C)C(=O)N[C@@H](CCCCN)C(=O)N[C@@H](CCCCN)C(=O)N[C@@H](CCSC)C(=O)N[C@@H](CCC(=O)O)C(=O)N[C@@H](CCCNC(=N)N)C(=O)N[C@H](C(=O)N[C@@H](CCC(=O)O)C(=O)N[C@@H](Cc1c[nH]c2ccccc12)C(=O)N[C@@H](CC(C)C)C(=O)N[C@@H](CCCNC(=N)N)C(=O)N[C@@H](CCCCN)C(=O)N[C@@H](CCC(N)=O)C(=O)N[C@@H](CC(C)C)C(=O)N[C@@H](CCC(N)=O)C(=O)NC(C)(C)C(=O)N[C@H](C(=O)N[C@@H](Cc1c[nH]cn1)C(=O)N[C@@H](CC(N)=O)C(=O)N[C@@H](Cc1ccccc1)C(=O)O)C(C)C)C(C)C [(19), [Asp^10, Phe^11, Lys^16,17, Gln^2 7, Aib^30] hPTH(1-34)] (H-SVSEIQLMHDFGKHLKKMERVEWLRKQLQ[Aib]VHNF-OH)
bone increase (Sprangue Dawley rats; [1]): 16.9 mg

CC[C@H](C)[C@H](NC(=O)[C@H](CCC(=O)O)NC(=O)[C@H](CO)NC(=O)[C@@H](NC(=O)[C@@H](N)CO)C(C)C)C(=O)N[C@@H](CCC(N)=O)C(=O)N[C@@H](CC(C)C)C(=O)N[C@@H](CCSC)C(=O)N[C@@H](Cc1c[nH]cn1)C(=O)N[C@@H](CCC(=O)O)C(=O)N[C@@H](CC(C)C)C(=O)NCC(=O)N[C@@H](CCCCN)C(=O)N[C@@H](Cc1c[nH]cn1)C(=O)N[C@@H](CC(C)C)C(=O)N[C@@H](CO)C(=O)N[C@@H](CO)C(=O)N[C@@H](CCSC)C(=O)N[C@@H](CCC(=O)O)C(=O)N[C@@H](CCCNC(=N)N)C(=O)N[C@H](C(=O)N[C@@H](CCC(=O)O)C(=O)N[C@@H](Cc1c[nH]c2ccccc12)C(=O)N[C@@H](CC(C)C)C(=O)N[C@@H](CCCNC(=N)N)C(=O)N[C@@H](CCCCN)C(=O)N[C@@H](CCCCN)C(=O)N[C@@H](CC(C)C)C(=O)N[C@@H](CCC(N)=O)C(=O)N[C@@H](CC(=O)O)C(=O)N[C@H](C(=O)N[C@@H](Cc1c[nH]cn1)C(=O)N[C@@H](CC(N)=O)C(=O)N[C@@H](Cc1ccccc1)C(=O)O)C(C)C)C(C)C [(15), [Glu^10, Ser^16] hPTH(1-34)] (H-SVSEIQLMHELGKHLSSMERVEWLRKKLQDVHNF-OH)
bone increase (Sprangue Dawley rats; [1]): 15.1 mg

CC[C@H](C)[C@H](NC(=O)[C@H](CCC(=O)O)NC(=O)[C@H](CO)NC(=O)[C@@H](NC(=O)[C@@H](N)CO)C(C)C)C(=O)N[C@@H](CCC(N)=O)C(=O)N[C@@H](CC(C)C)C(=O)N[C@@H](CCSC)C(=O)N[C@@H](Cc1c[nH]cn1)C(=O)N[C@@H](CCC(=O)O)C(=O)N[C@@H](Cc1ccccc1)C(=O)NCC(=O)N[C@@H](CCCCN)C(=O)N[C@@H](Cc1c[nH]cn1)C(=O)N[C@@H](CC(C)C)C(=O)N[C@@H](CCCCN)C(=O)N[C@@H](CO)C(=O)N[C@@H](CCSC)C(=O)N[C@@H](CCC(=O)O)C(=O)N[C@@H](CCCNC(=N)N)C(=O)N[C@H](C(=O)N[C@@H](CCC(=O)O)C(=O)N[C@@H](Cc1c[nH]c2ccccc12)C(=O)N[C@@H](CC(C)C)C(=O)N[C@@H](CCCNC(=N)N)C(=O)N[C@@H](CCCCN)C(=O)N[C@@H](CCC(N)=O)C(=O)N[C@@H](CC(C)C)C(=O)N[C@@H](CCC(N)=O)C(=O)N[C@@H](CC(=O)O)C(=O)N[C@H](C(=O)N[C@@H](Cc1c[nH]cn1)C(=O)N[C@@H](CC(N)=O)C(=O)N[C@@H](Cc1ccccc1)C(=O)O)C(C)C)C(C)C [(17), [Glu^10, Phe^11, Lys^16, Gln^27] hPTH(1-34)] (H-SVSEIQLMHEFGKHLKSMERVEWLRKQLQDVHNF-OH)
bone increase (Sprangue Dawley rats; [1]): 12.4 mg

CC[C@H](C)[C@H](NC(=O)[C@H](CCC(=O)O)NC(=O)[C@H](CO)NC(=O)[C@@H](NC(=O)[C@@H](N)CO)C(C)C)C(=O)N[C@@H](CCC(N)=O)C(=O)N[C@@H](CC(C)C)C(=O)N[C@@H](CCSC)C(=O)N[C@@H](Cc1c[nH]cn1)C(=O)N[C@@H](CCC(=O)O)C(=O)N[C@@H](Cc1ccccc1)C(=O)N[C@H](C)C(=O)N[C@@H](CCCCN)C(=O)N[C@@H](Cc1c[nH]cn1)C(=O)N[C@@H](CC(C)C)C(=O)N[C@@H](CC(N)=O)C(=O)N[C@@H](CO)C(=O)N[C@@H](CCSC)C(=O)N[C@@H](CCC(=O)O)C(=O)N[C@@H](CCCNC(=N)N)C(=O)N[C@H](C(=O)N[C@@H](CCC(=O)O)C(=O)N[C@@H](Cc1c[nH]c2ccccc12)C(=O)N[C@@H](CC(C)C)C(=O)N[C@@H](CCCNC(=N)N)C(=O)N[C@@H](CCCCN)C(=O)N[C@@H](CCCCN)C(=O)N[C@@H](CC(C)C)C(=O)N[C@@H](CCC(N)=O)C(=O)N[C@@H](CC(=O)O)C(=O)N[C@H](C(=O)N[C@@H](Cc1c[nH]cn1)C(=O)N[C@@H](CC(N)=O)C(=O)N[C@@H](Cc1ccccc1)C(=O)O)C(C)C)C(C)C [(10), [Glu^10, Phe^11, D-Ala^12] hPTH(1-34)] (H-SVSEIQLMHEF[dA]KHLNSMERVEWLRKKLQDVHNF-OH)
bone increase (Sprangue Dawley rats; [1]): 19.4 mg

SVSEIQLMHDLGKHLNSMERVEWLRKKLQDVHNF [[Asp^10 ] hPTH(1-34)]
cAMP increase (pmol/well) (PTH receptor): 0.6 pmol/well

SVSEIQLMHELGKHLNSMERVEWLRKKLQDVHNF [[Glu^10 ] hPTH(1-34)]
cAMP increase (pmol/well) (PTH receptor): 1.81 pmol/well

SVSEIQLMHDFGKHLNSMERVEWLRKKLQDVHNF [[Asp^10, Phe^11 ] hPTH(1-34)]
cAMP increase (pmol/well) (PTH receptor): 2.58 pmol/well

SVSEIQLMHD[2Nal]GKHLNSMERVEWLRKKLQDVHNF [[Asp^10, Ala(2-Naph)^11 ] hPTH(1-34)]
cAMP increase (pmol/well) (PTH receptor): 2.65 pmol/well
